pKd, pKi: −log10 of the molar value.

The first assay deals with T1, TAAR1 (Mus musculus, UniProt Q923Y8).
T1 construct: expressed in transfected cells; host or cells: HEK293 cells (ATCC # CRL-1573), stably transfected with a pIRESneo2 expression plasmid; membranes prepared from them
T1 sequence (Q923Y8 whole entry): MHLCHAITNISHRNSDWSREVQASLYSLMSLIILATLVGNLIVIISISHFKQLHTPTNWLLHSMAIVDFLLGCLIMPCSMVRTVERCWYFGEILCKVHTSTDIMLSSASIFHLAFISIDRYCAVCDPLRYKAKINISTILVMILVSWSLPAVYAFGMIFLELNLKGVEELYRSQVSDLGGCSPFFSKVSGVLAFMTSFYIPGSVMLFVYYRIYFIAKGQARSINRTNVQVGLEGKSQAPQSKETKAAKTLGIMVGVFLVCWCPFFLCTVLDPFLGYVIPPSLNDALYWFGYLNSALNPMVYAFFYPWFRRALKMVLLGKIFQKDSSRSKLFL
In words: Radioligand binding to TAAR1, membranes of stably transfected HEK293 cells.
Details: not given
As for the experimental part:
For the construction of expression plasmids, the coding sequences of human, rat and mouse TAAR 1 were amplified from genomic DNA essentially as described by Lindemann et al. (2005) Genomics 85, 372-385. The Expand High Fidelity PCR System (Roche Diagnostics) was used with 1.5 mM Mg^2F and purified PCR products were cloned into pCR2.1-TOPO cloning vector (Invitrogen) following the instructions of the manufacturer. PCR products were subcloned into the pIRESneo2 vector (BD Clontech, Palo Alto, Calif.), and expression vectors were sequence verified before introduction in cell lines.
HEK293 cells (ATCC # CRL-1573) were cultured essentially as described in Lindemann et al. (2005) Genomics 85, 372-385. For the generation of stably transfected cell lines, HEK293 cells were transfected with the pIRESneo2 expression plasmids containing the TAAR coding sequences (described above) with Lipofectamine 2000 (Invitrogen) according to the instructions of the manufacturer, and 24 hours post transfection, the culture medium was supplemented with 1 mg/ml G418 (Sigma, Buchs, Switzerland). After a culture period of about 10 days, clones were isolated, expanded and tested for responsiveness to trace amines (all compounds purchased from Sigma) with the cAMP Biotrak Enzyme immunoassay (EIA) System (Amersham) following the non-acetylation EIA procedure provided by the manufacturer.
Cells at confluence were rinsed with ice-cold phosphate buffered saline without Ca^2+ and Mg^2+ containing 10 mM EDTA and pelleted by centrifugation at 1000 rpm for 5 minutes at 4° C. The pellet was then washed twice with ice-cold phosphate buffered saline and the cell pellet was frozen immediately by immersion in liquid nitrogen and stored until use at −80° C. The cell pellet was then suspended in 20 ml HEPES-NaOH (20 mM), pH 7.4 containing 10 mM EDTA, and homogenized with a Polytron (PT 3000, Kinematica) at 10,000 rpm for 10 seconds. The homogenate was centrifuged at 48,000×g for 30 minutes at 4° C. and the pellet resuspended in 20 ml HEPES-NaOH (20 mM), pH 7.4 containing 0.1 mM EDTA (buffer A), and homogenized with a Polytron at 10,000 rpm for 10 seconds. The homogenate was then centrifuged at 48,000×g for 30 minutes at 4° C. and the pellet resuspended in 20 ml buffer A, and homogenized with a Polytron at 10,000 rpm for 10 seconds. Protein concentration was determined by the method of Pierce (Rockford, Ill.). The homogenate was then centrifuged at 48,000×g for 10 minutes at 4° C., resuspended in HEPES-NaOH (20 mM), pH 7.0 including MgC12 (10 mM) and CaCl2 ([…]) (buffer B) at 200 μg protein per ml and homogenized with a Polytron at 10,000 rpm for 10 seconds.
Binding assay was performed at 4° C. in a final volume of 1 ml, and with an incubation time of 30 minutes. The radioligand [^3H]-rac-2-(1,2,3,4-tetrahydro-1-naphthyl)-2-imidazoline was used at a concentration equal to the calculated Kd value of 60 nM to give a total binding at around 0.1% of the total added radioligand concentration, and a specific binding which represented approximately 70-80% of the total binding. Non-specific binding was defined as the amount of [^3H]-rac-2-(1,2,3,4-tetrahydro-1-naphthyl)-2-imidazoline bound in the presence of the appropriate unlabelled ligand (10 μM). Competing ligands were tested in a wide range of concentrations ([…]). […] Each experiment was performed in duplicate. All incubations were terminated by rapid filtration through UniFilter-96 plates (Packard Instrument Company) and glass filter GF/C, pre-soaked for at least 2 hours in polyethylenimine 0.3%, and using a Filtermate 96 Cell Harvester (Packard Instrument Company). The tubes and filters were then washed 3 times with 1 ml aliquots of cold buffer B. Filters were not dried and soaked in Ultima gold (45 μl/well, Packard Instrument Company) and bound radioactivity was counted by a TopCount Microplate Scintillation Counter (Packard Instrument Company).
Regarding `CCC(Cc1cnc[nH]1)c1ccccc1` (stereo not drawn) [Example 1, 4-(2-Phenyl-butyl)-1H-imidazole], the pKi – broadly, the negative decadic logarithm of the Ki, by convention in mol/L – was 7.22.
Turning to `Clc1ccccc1CCc1cnc[nH]1` [Example 5, 4-[2-(2-Chloro-phenyl)-ethyl]-1H-imidazole], the pKi was 8.23.
The same measure, in the same setting: the result for `COc1ccccc1CCc1cnc[nH]1` [Example 8, 4-[2-(2-Methoxy-phenyl)-ethyl]-1H-imidazole] reads 7.07.
As for `Clc1cccc(CCc2cnc[nH]2)c1` [Example 11, 4-[2-(3-Chloro-phenyl)-ethyl]-1H-imidazole], the pKi was 8.60.
Turning to `Fc1cccc(CCc2cnc[nH]2)c1` [Example 12, 4-[2-(3-Fluoro-phenyl)-ethyl]-1H-imidazole], the pKi was 8.01.
For `FC(F)(F)c1cccc(CCc2cnc[nH]2)c1` [Example 13, 4-[2-(3-Trifluoromethyl-phenyl)-ethyl]-1H-imidazole], the pKi is 7.97.
As to `COc1cccc(CCc2cnc[nH]2)c1` [Example 14, 4-[2-(3-Methoxy-phenyl)-ethyl]-1H-imidazole], the pKi was 7.22.
As for `Clc1ccc(CCc2cnc[nH]2)cc1` [Example 16, 4-[2-(4-Chloro-phenyl)-ethyl]-1H-imidazole], the pKi is 7.76.
On to `Clc1cc(Cl)cc(CCc2cnc[nH]2)c1` [Example 17, 4-[2-(3,5-Dichloro-phenyl)-ethyl]-1H-imidazole], for which the pKi was 8.72. This pKi is 0.96 log units higher than that of the compound before.

Still in this assay, the particulars now being: mouse TAAR1; radioligand [3H]-rac-2-(1,2,3,4-tetrahydro-1-naphthyl)-2-imidazoline at 60 nM; 4° C., 30 minutes; read-out: Ki (μM) mouse.
For the compound `Clc1cccc(OCc2cnc[nH]2)c1Cl` [Example 20, 4-(2,3-Dichloro-phenoxymethyl)-1H-imidazole], the Ki (as a rule, the dissociation constant of the complex between target and ligand, obtained from inhibition or displacement) came to 0.043 µM.
As to `Fc1cccc(OCc2cnc[nH]2)c1F` [Example 35, 4-(2,3-Difluoro-phenoxymethyl)-1H-imidazole], the Ki came out at 0.0889 µM.
`Clc1ccc(OCc2cnc[nH]2)cc1Cl` [Example 36, 4-(3,4-Dichloro-phenoxymethyl)-1H-imidazole]: the Ki is 0.0227 µM.
As to `Fc1cc(OCc2cnc[nH]2)ccc1Cl` [Example 37, 4-(4-Chloro-3-fluoro-phenoxymethyl)-1H-imidazole], the Ki was found to be 0.0802 µM.
As to `c1ncc(COc2ccc3ccoc3c2)[nH]1` [Example 39, 5-(Benzofuran-6-yloxymethyl)-1H-imidazole], the Ki amounted to 0.0684 µM.
For the compound `Clc1cccc(SCc2cnc[nH]2)c1Cl` [Example 42, 5-(2,3-Dichloro-phenylsulfanylmethyl)-1-imidazole], the Ki worked out at 0.0041 µM.
The same measure, in the same setting: the same measure for `Cc1[nH]cnc1CSc1ccc(Cl)cc1` [Example 46, 4-(4-Chloro-phenylsulfanylmethyl)-5-methyl-1H-imidazole]: 0.0146 µM; for `c1ccc2cc(SCc3c[nH]cn3)ccc2c1` [Example 47, 4-(Naphthalen-2-ylsulfanylmethyl)-1H-imidazole]: 0.0103 µM.

Still in this assay, the particulars now being: radioligand used at a concentration equal to its calculated Kd; TAAR1 species not given.
For the compound `c1ccc2c(c1)CCCC2C1=NCCN1` (racemic) [[^3H]-rac-2-(1,2,3,4-tetrahydro-1-naphthyl)-2-imidazoline, reference compound], the pKd (commonly the Kd on a negative log10 scale, so that one unit is a factor of ten) is 7.22.

The record behind these values is patent publication US20120004230A1, “IMIDAZOLE DERIVATIVES” (priority 2006, published 2012).
